The values that follow are results of earlier work, collected in patent publication US12187997B2, “Integrated human organ-on-chip microphysiological systems” (President and Fellows of Harvard College, priority 2011, dated 2025).

For series [1] the following is noted: for Organ Toxicity: Table 1.
The conditions of series [2]: for Clearence Mechanism (for PK): Table 1.
The conditions of series [3]: relieving dyspnea in heart failure patients.

Entries after “also recorded” stand apart in the source; their conditions may differ.

As for `Cc1nnc(SCC2=C(C(=O)O)N3C(=O)[C@@H](NC(=O)Cn4cnnn4)[C@H]3SC2)s1` [Cefazolin], in series [1], the “toxicity in humans / in vivo” value is “produces pulmonary blood clots and nephrotoxicity”; the “Organ Toxicity” value is “Lung, Kidney”.

With `Cc1c(C)c2c(c(C)c1O)CCC(C)(COc1ccc(CC3SC(=O)NC3=O)cc1)O2` (centres unmarked) [Troglitazone], in series [2], the “Clearence Mechanism (for PK)” value is on record as “Liver”. In addition, in series [1], the “Organ Toxicity” value was “Liver”.

For the compound `COc1cccc2c1C(=O)c1c(O)c3c(c(O)c1C2=O)C[C@@](O)(C(=O)CO)C[C@@H]3O[C@H]1C[C@H](N)[C@H](O)[C@H](C)O1` [Doxorubicin], the “Clearence Mechanism (for PK)” value in series [2] is “Liver, Renal”. The “Organ Toxicity” value in series [1] was “Heart, gut, and bone marrow, and skin”.

As for `CC(C)NCC(O)c1ccc(O)c(O)c1` (centres unmarked) [Isoproterenol], in series [2], the “metabolism and elimination” value is “primarily metabolized and excreted by the kidney in humans”; the “Clearence Mechanism (for PK)” value was “Renal”. In series [1], the “Organ Toxicity” value is “Heart”.

As to `Nc1ccn([C@H]2C[C@H](O)[C@@H](COP(=O)(O)OP(=O)(O)OP(=O)(O)OP(=O)(O)OC[C@H]3O[C@@H](n4ccc(=O)[nH]c4=O)[C@H](O)[C@@H]3O)O2)c(=O)n1` [Denufosol], the “Clearence Mechanism (for PK)” value in series [2] is “Aerosol”.

With `N.N.[Cl][Pt][Cl]` [Cisplatin], the “Clearence Mechanism (for PK)” value in series [2] is on record as “Renal”.

Take `CC(C)(C)c1ccc(C(O)CCCN2CCC(C(O)(c3ccccc3)c3ccccc3)CC2)cc1` (centres unmarked) [Terfenadine]: in series [1], the “toxicity in humans / in vivo” value is “cardiotoxic at higher doses in humans” and the “Organ Toxicity” value is on record as “Heart; also recorded: arrhythmia”.

For `CC(=O)N1CCN(c2ccc(OCC3COC(Cn4ccnc4)(c4ccc(Cl)cc4Cl)O3)cc2)CC1` (centres unmarked) [Ketoconazole], the “Clearence Mechanism (for PK)” value in series [2] is given as “Liver”. The “Organ Toxicity” value in series [1] is on record as “Liver DDI, tests”.

Regarding `COCc1c(C(C)C)nc(C(C)C)c(/C=C/[C@@H](O)C[C@@H](O)CC(=O)O)c1-c1ccc(F)cc1` [Cerivastatin], the “Clearence Mechanism (for PK)” value in series [2] is reported as “Liver”. For the same compound, in series [1], the “toxicity in humans / in vivo” value is “major toxicities in vivo (rhabdylomysis) and liver toxicity”; the “Organ Toxicity” value was “Skeletal; also recorded: muscle,; also recorded: Kidney, Liver”.

As to `Cc1ccc2c(c1)c1c(n2CCc2ccc(C)nc2)CCN(C)C1` [Latrepirdine], the “Clearence Mechanism (for PK)” value in series [2] is given as “(Crosses BBB)”.

`COc1ccc(C(=O)N2CCN(c3ccc4c(c3)CCC(=O)N4)CC2)cc1OC` [Vesnarinone]: the “Clearence Mechanism (for PK)” value in series [2] is “Liver”. The “Organ Toxicity” value in series [1] is reported as “Heart”.

Consider Nesiritide, for which, in series [2], the “metabolism and elimination” value was “primarily eliminated by the kidney”; the “Clearence Mechanism (for PK)” value is recorded as “Proteolysis,; also recorded: Renal”. The clinical efficacy entry in series [3] was “failed a large clinical trial for efficacy”.

In the case of `CCOC(=O)C1=C[C@@H](OC(CC)CC)[C@H](NC(C)=O)[C@@H](N)C1` [Tamiflu], the “Clearence Mechanism (for PK)” value in series [2] was “Liver; Renal”. Moreover, in series [1], the “Organ Toxicity” value is “children <1 yr”.
